Legend:
HIV-1IIIB = assay: Drug combination anti-HIV-1 cytoprotection assay (MacSynergy II) in CEM-SS cells infected with HIV-1IIIB; format: cell-based; settings: in combination with Compound A; for Antagonism Volume, Result 1 / Synergy Volume, Result 1 / Antagonism Volume, Result 2 / Synergy Volume, Result 2 / Antagonism Volume, Result 3 / Synergy Volume, Result 3: 95% confidence interval; for Antagonism Volume, Result 1 / Synergy Volume, Result 1: assay 1; for Antagonism Volume, Result 2 / Synergy Volume, Result 2: assay 2; for Antagonism Volume, Result 3 / Synergy Volume, Result 3: assay 3; for Mean Antagonism Volume / Mean Synergy Volume: n = 3
Description: This work was performed using the Prichard and Shipman MacSynergy II three-dimensional model for statistical evaluation of combination anti-HIV assays. Using a standard microtiter plate format, each combination assay was performed in CEM-SS T-lymphocytic cells acutely infected with the a laboratory-adapted strain, HIV-1IIIB, and viral growth/inhibition was evaluated by measuring by monitoring virus-induced cytopathic effects (CPE) at the experimental endpoint.
AZT was dissolved in sterile dH2O and the remainder of the control compounds were dissolved in DMSO for analysis in the combination assays. […] CEM-SS cells were passaged in T-75 flasks prior to use in the antiviral assay. On the day preceding the assay, the cells were split 1:2 to assure they were in an exponential growth phase at the time of infection. Total cell and viability quantification was performed using a hemacytometer and trypan blue exclusion.
The virus used for these tests was the lymphocytropic virus strain HIV-1IIIB. This virus was obtained from the NIH AIDS Research and Reference Reagent Program and was grown in CEM-SS cells for the production of stock virus pools. For each assay, a pre-titered aliquot of virus was removed from the freezer (−80° C.) and allowed to thaw slowly to room temperature in a biological safety cabinet. The virus was resuspended and diluted into tissue culture medium such that the amount of virus added to each well in a volume of 50 μl was the amount determined to give between 85 to 95% cell killing at 6 days post-infection.
(§1) The format of the test plate was standardized as follows. Each plate contains cell control wells (cells only), virus control wells (cells plus virus), drug cytotoxicity wells (cells plus drug only), drug colorimetric control wells (drug only), as well as experimental wells (drug plus cells plus virus). The final volume in each well was 200 μl.
At assay termination, the assay plates were stained with the soluble tetrazolium-based dye MTS (CellTiter96 Reagent, Promega) to determine cell viability and quantify compound toxicity. […] At termination of the assay, 20 μl of MTS reagent was added per well. The microtiter plates were then incubated 4-6 hrs at 37° C. for the HIV cytoprotection assay; the incubation intervals were chosen based on empirically determined times for optimal dye reduction. Adhesive plate sealers were used in place of the lids, the sealed plate was inverted several times to mix the soluble formazan product and the plate was read spectrophotometrically at 490/650 nm with a Molecular Devices Vmax plate reader.
Combination antiviral assays were performed with CEM-SS cells utilizing the HIV-1IIIB strain of virus as described above.
The expected additive antiviral protection was subtracted from the experimentally determined antiviral activity at each combination concentration resulting in a positive value (synergy), a negative value (antagonism), or zero (additivity). The results of the combination assays are presented three dimensionally at each combination concentration, yielding a surface of activity extending above (synergy) or below (antagonism) the plane of additivity. The volume of the surface is calculated and expressed as a synergy volume (μM^2%) calculated at the 95% confidence interval.
Slightly synergistic activity and highly synergistic activity have been defined as yielding synergy volumes of 50-100 μM^2% and >100 μM^2%, respectively.

CEM-SS cells = assay: Cellular cytotoxicity by MTS staining in the combination assay; format: cell-based; settings: combinations with other anti-HIV agents; Compound A 4 nM high-test concentration
Description: as §1, with “μl. Samples were evaluated with triplicate measurements using a checkerboard dilution scheme; […]; antiviral efficacy and cellular cytotoxicity were monitored by MTS staining at the experimental endpoint.” for “μl.”
At assay termination, the assay plates were stained with the soluble tetrazolium-based dye MTS (CellTiter96 Reagent, Promega) to determine cell viability and quantify compound toxicity. MTS is metabolized by the mitochondrial enzymes of metabolically active cells to yield a soluble formazan product, allowing the rapid quantitative analysis of cell viability and compound cytotoxicity. […] The microtiter plates were then incubated 4-6 hrs at 37° C. for the HIV cytoprotection assay; the incubation intervals were chosen based on empirically determined times for optimal dye reduction. Adhesive plate sealers were used in place of the lids, the sealed plate was inverted several times to mix the soluble formazan product and the plate was read spectrophotometrically at 490/650 nm with a Molecular Devices Vmax plate reader.

Cc1cn([C@H]2C[C@H](N=[N+]=[N-])[C@@H](CO)O2)c(=O)[nH]c1=O [AZT, zidovudine]
Antagonism Volume, Result 1 (HIV-1IIIB): −21 μM^2%
Synergy Volume, Result 1 (HIV-1IIIB): 46 μM^2%
Antagonism Volume, Result 2 (HIV-1IIIB): −44 μM^2%
Synergy Volume, Result 2 (HIV-1IIIB): 19 μM^2%
Antagonism Volume, Result 3 (HIV-1IIIB): −23 μM^2%
Synergy Volume, Result 3 (HIV-1IIIB): 57 μM^2%
Mean Antagonism Volume (HIV-1IIIB): −29.3 μM^2%
Mean Synergy Volume (HIV-1IIIB): 40.7 μM^2%

CC(C)(C)NC(=O)[C@@H]1CN(Cc2cccnc2)CCN1C[C@@H](O)C[C@@H](Cc1ccccc1)C(=O)N[C@H]1c2ccccc2C[C@H]1O [IDV, indinavir]
Antagonism Volume, Result 1 (HIV-1IIIB): −7 μM^2%
Synergy Volume, Result 1 (HIV-1IIIB): 57 μM^2%
Antagonism Volume, Result 2 (HIV-1IIIB): −23 μM^2%
Synergy Volume, Result 2 (HIV-1IIIB): 13 μM^2%
Antagonism Volume, Result 3 (HIV-1IIIB): −26 μM^2%
Synergy Volume, Result 3 (HIV-1IIIB): 10 μM^2%
Mean Antagonism Volume (HIV-1IIIB): −18.7 μM^2%
Mean Synergy Volume (HIV-1IIIB): 26.7 μM^2%

COc1cc2c(cc1Cc1cccc(Cl)c1F)c(=O)c(C(=O)O)cn2[C@H](CO)C(C)C [Compound A, (S)-6-(3-Chloro-2-fluorobenzyl)-1-(1-hydroxymethyl-2-methylpropyl)-7-methoxy-4-oxo-1,4-dihydroquinoline-3-carboxylic acid]
synergistic cytotoxicity (CEM-SS cells): no evidence of synergistic cytotoxicity

O=C1Nc2ccc(Cl)cc2[C@@](C#CC2CC2)(C(F)(F)F)O1 [EFV, efavirenz]
Antagonism Volume, Result 1 (HIV-1IIIB): −9 μM^2%
Synergy Volume, Result 1 (HIV-1IIIB): 26 μM^2%
Antagonism Volume, Result 2 (HIV-1IIIB): 0 μM^2%
Synergy Volume, Result 2 (HIV-1IIIB): 54 μM^2%
Antagonism Volume, Result 3 (HIV-1IIIB): −7 μM^2%
Synergy Volume, Result 3 (HIV-1IIIB): 26 μM^2%
Mean Antagonism Volume (HIV-1IIIB): −5.3 μM^2%
Mean Synergy Volume (HIV-1IIIB): 35.3 μM^2%

Cc1c(O)cccc1C(=O)N[C@@H](CSc1ccccc1)[C@H](O)CN1C[C@H]2CCCC[C@H]2C[C@H]1C(=O)NC(C)(C)C [NFV, nelfinavir]
Antagonism Volume, Result 1 (HIV-1IIIB): −3 μM^2%
Synergy Volume, Result 1 (HIV-1IIIB): 44 μM^2%
Antagonism Volume, Result 2 (HIV-1IIIB): −3 μM^2%
Synergy Volume, Result 2 (HIV-1IIIB): 38 μM^2%
Antagonism Volume, Result 3 (HIV-1IIIB): −46 μM^2%
Synergy Volume, Result 3 (HIV-1IIIB): 20 μM^2%
Mean Antagonism Volume (HIV-1IIIB): −17.3 μM^2%
Mean Synergy Volume (HIV-1IIIB): 34. μM^2%

C[C@H](Cn1cnc2c(N)ncnc21)OCP(=O)(O)O [PMPA, tenofovir]
Antagonism Volume, Result 1 (HIV-1IIIB): −23 μM^2%
Synergy Volume, Result 1 (HIV-1IIIB): 29 μM^2%
Antagonism Volume, Result 2 (HIV-1IIIB): −4 μM^2%
Synergy Volume, Result 2 (HIV-1IIIB): 43 μM^2%
Antagonism Volume, Result 3 (HIV-1IIIB): −60 μM^2%
Synergy Volume, Result 3 (HIV-1IIIB): 13 μM^2%
Mean Antagonism Volume (HIV-1IIIB): −29.0 μM^2%
Mean Synergy Volume (HIV-1IIIB): 28.3 μM^2%

From patent US8633219B2, “Combination therapy” (Japan Tobacco Inc., priority 2004, dated 2014)
